In patent publication US20230151003A1, “COMPOUNDS AND METHODS OF USE” (Exelixis, Inc., priority 2020, published 2023):

Assays:
[1] = target: T1, Mer (Homo sapiens, UniProt Q12866); experiment: Mer autophosphorylation ELISA in transient transfected 293A cells; type: cell-based; details: Table 3 Cellular Activities; MERTK-transfected 293A cells, phospho-Mer ELISA
T1 construct: host or cells: 293A cells (Thermo Fisher #R70507)
T1 sequence (Q12866 21-999): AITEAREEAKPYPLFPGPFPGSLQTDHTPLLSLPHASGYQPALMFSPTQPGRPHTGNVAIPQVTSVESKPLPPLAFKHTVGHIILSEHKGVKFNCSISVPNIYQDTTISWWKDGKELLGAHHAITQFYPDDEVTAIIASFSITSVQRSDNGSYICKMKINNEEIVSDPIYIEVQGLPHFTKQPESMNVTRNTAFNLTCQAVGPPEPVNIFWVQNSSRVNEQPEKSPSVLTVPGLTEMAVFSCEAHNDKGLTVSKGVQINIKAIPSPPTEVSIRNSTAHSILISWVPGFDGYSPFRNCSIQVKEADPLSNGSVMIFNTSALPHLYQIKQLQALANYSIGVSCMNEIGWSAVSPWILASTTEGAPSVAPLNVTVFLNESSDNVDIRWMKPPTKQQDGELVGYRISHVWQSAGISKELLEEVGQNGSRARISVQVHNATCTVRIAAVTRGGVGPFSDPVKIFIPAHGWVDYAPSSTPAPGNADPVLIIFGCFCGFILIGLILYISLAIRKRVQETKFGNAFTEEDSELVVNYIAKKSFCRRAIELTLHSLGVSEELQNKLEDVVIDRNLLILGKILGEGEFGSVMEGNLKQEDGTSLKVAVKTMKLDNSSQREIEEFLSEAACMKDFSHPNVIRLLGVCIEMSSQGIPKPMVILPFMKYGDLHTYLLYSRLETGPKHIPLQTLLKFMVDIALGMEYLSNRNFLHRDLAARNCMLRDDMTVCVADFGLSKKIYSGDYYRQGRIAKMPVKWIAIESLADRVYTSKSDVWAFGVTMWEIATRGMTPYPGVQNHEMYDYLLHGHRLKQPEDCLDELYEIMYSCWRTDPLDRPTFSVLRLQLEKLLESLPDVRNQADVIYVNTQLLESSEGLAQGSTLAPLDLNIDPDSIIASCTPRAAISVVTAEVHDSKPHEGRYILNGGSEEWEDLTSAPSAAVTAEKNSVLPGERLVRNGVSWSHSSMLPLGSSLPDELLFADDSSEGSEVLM
Procedure, shortened: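 Phospho-Mer quantified by ELISA in lysates of transiently MERTK-transfected 293A cells after 1 h exposure to an 8-point compound series, serum-free, 0.3% DMSO. Activity normalized between DMSO-treated (100%) and reference inhibitor-treated (0%) lysates; IC50 via 4-parameter nonlinear regression.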

[2] = target: Met (Homo sapiens, UniProt P08581); experiment: Met autophosphorylation ELISA in PC-3 cells; type: cell-based; set-up: endogenous in cells; host or cells: PC-3 prostate cancer cells (ATCC #CRL-1435); details: Table 3 Cellular Activities, HGF-stimulated, phospho-Met ELISA, read-out: c-Met IC50
Chain of Met (P08581 25-1390): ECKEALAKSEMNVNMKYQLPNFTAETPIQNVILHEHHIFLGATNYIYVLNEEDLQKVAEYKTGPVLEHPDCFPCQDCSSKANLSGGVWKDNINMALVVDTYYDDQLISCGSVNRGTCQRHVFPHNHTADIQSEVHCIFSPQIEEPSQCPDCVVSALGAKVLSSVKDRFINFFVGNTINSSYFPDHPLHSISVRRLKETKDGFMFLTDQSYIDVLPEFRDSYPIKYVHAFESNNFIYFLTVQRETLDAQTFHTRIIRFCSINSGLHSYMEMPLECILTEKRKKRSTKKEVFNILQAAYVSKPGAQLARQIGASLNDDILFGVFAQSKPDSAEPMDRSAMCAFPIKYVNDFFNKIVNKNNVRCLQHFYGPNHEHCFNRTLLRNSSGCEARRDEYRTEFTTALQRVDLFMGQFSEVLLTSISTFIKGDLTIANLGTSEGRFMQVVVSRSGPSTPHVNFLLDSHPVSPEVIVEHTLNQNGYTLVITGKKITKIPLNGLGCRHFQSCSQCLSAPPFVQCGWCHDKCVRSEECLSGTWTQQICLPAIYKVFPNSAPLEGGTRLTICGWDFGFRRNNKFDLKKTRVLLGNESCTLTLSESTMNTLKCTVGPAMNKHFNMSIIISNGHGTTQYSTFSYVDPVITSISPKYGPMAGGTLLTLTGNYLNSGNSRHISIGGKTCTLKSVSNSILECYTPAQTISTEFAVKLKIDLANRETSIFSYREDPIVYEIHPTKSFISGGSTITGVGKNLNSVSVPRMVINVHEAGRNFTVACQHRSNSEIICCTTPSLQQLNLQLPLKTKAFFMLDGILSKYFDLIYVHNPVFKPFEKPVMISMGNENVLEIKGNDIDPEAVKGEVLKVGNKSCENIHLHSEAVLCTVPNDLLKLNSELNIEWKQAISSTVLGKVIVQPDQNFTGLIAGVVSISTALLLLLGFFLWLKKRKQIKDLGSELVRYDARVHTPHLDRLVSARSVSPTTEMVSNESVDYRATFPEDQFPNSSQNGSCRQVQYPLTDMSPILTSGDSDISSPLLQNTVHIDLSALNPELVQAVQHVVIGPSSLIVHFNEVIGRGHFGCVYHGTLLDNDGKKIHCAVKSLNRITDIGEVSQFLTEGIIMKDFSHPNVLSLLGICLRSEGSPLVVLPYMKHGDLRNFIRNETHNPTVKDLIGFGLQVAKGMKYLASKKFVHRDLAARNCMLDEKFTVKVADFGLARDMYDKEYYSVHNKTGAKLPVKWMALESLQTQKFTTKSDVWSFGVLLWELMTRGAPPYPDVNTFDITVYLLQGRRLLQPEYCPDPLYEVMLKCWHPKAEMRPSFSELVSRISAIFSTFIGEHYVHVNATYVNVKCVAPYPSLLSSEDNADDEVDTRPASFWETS
Procedure, shortened: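 IC50 derived by 4-parameter logistic regression of phospho-Met (panTyr) sandwich ELISA signal, scaled between HGF-stimulated DMSO and reference-inhibitor lysates. PC-3 cells, serum-starved 3 h, received an 8-point compound series (0.3% DMSO) for 1 h before 10 min stimulation with 100 ng/mL human HGF.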

| SMILES | IC50 [1] [µM] | IC50 [2] [µM] |
| --- | --- | --- |
| COc1cc2nccc(Oc3ccc(NC(=O)c4ccc(C)n(-c5ccncc5F)c4=O)cc3F)c2nc1OC [Compound 220, N-[4-[(6,7-Dimethoxy-1,5-naphthyridin-4-yl)oxy]-3-fluorophenyl]-1-(3-fluoropyridin-4-yl)-6-methyl-2-oxopyridine-3-carboxamide] | ≤ 0.1 | ≤ 0.1 |
| Cc1ccc(C(=O)Nc2ccc(Oc3ccnc4cnc(Cl)cc34)c(F)c2)c(=O)n1-c1ccc(F)cn1 [Compound 54A, N-[4-[(6-Chloro-1,7-naphthyridin-4-yl)oxy]-3-fluorophenyl]-1-(5-fluoropyridin-2-yl)-6-methyl-2-oxopyridine-3-carboxamide] | ≤ 0.1 | ≤ 0.1 |
| COc1cc2nccc(Oc3ccc(NC(=O)c4ccc(C)n(-c5ccnc(C)c5)c4=O)cc3F)c2nc1OC [Compound 230, N-[4-[(6,7-Dimethoxy-1,5-naphthyridin-4-yl)oxy]-3-fluorophenyl]-6-methyl-1-(2-methylpyridin-4-yl)-2-oxopyridine-3-carboxamide] | ≤ 0.1 | ≤ 0.1 |
| COc1cc2c(Oc3ccc(NC(=O)c4c(C)ncc(-c5ccccn5)c4O)cc3F)ccnc2cn1 [Compound 223, N-[3-Fluoro-4-[(6-methoxy-1,7-naphthyridin-4-yl)oxy]phenyl]-4-hydroxy-2-methyl-5-pyridin-2-ylpyridine-3-carboxamide] | ≤ 0.1 | ≤ 0.1 |
| COc1cc(-n2c(C)ccc(C(=O)Nc3ccc(Oc4ccnc5cc(OC)c(OC)nc45)c(F)c3)c2=O)ccn1 [Compound 226, N-[4-[(6,7-Dimethoxy-1,5-naphthyridin-4-yl)oxy]-3-fluorophenyl]-1-(2-methoxypyridin-4-yl)-6-methyl-2-oxopyridine-3-carboxamide] | ≤ 0.1 | ≤ 0.1 |
| COc1ccc2nccc(Oc3ccc(NC(=O)c4ccc(C)n(-c5ccc(F)cn5)c4=O)cc3F)c2n1 [Compound 47, N-[3-Fluoro-4-[(6-methoxy-1,5-naphthyridin-4-yl)oxy]phenyl]-1-(5-fluoropyridin-2-yl)-6-methyl-2-oxopyridine-3-carboxamide] | ≤ 0.1 | ≤ 0.1 |
| COc1cc2nccc(Oc3ccc(NC(=O)c4c(C)ccn(-c5ccc(F)cn5)c4=O)cc3F)c2nc1OC [Compound 41, N-[4-[(6,7-Dimethoxy-1,5-naphthyridin-4-yl)oxy]-3-fluorophenyl]-1-(5-fluoropyridin-2-yl)-4-methyl-2-oxopyridine-3-carboxamide] | ≤ 0.1 | ≤ 0.1 |
| Cc1ccc(C(=O)Nc2ccc(Oc3ccnc4cccnc34)c(F)c2)c(=O)n1-c1ccc(F)cn1 [Compound 48, N-[3-Fluoro-4-(1,5-naphthyridin-4-yloxy)phenyl]-1-(5-fluoropyridin-2-yl)-6-methyl-2-oxopyridine-3-carboxamide] | ≤ 0.1 | ≤ 0.1 |
| COc1cnc2c(Oc3ccc(NC(=O)c4ccc(C)n(-c5ncc(F)cc5C)c4=O)cc3F)ccnc2c1 [Compound 52, N-[3-Fluoro-4-[(7-methoxy-1,5-naphthyridin-4-yl)oxy]phenyl]-1-(5-fluoro-3-methylpyridin-2-yl)-6-methyl-2-oxopyridine-3-carboxamide] | ≤ 0.1 | ≤ 0.1 |
| COc1cc2nccc(Oc3ccc(NC(=O)c4ccc(C)n(-c5ncc(F)cc5C)c4=O)cc3F)c2nc1OC [Compound 51, N-[4-[(6,7-Dimethoxy-1,5-naphthyridin-4-yl)oxy]-3-fluorophenyl]-1-(5-fluoro-3-methylpyridin-2-yl)-6-methyl-2-oxopyridine-3-carboxamide] | ≤ 0.1 | ≤ 0.1 |

The remaining lines, values ahead:

| IC50 [1] [µM] | IC50 [2] [µM] | SMILES |
| --- | --- | --- |
| ≤ 0.1 | ≤ 0.1 | COc1cc2nccc(Oc3ccc(NC(=O)c4c5n(cc(-c6ccc(C)s6)c4=O)CCOC5)cc3)c2nc1OC [Compound 305, N-[4-[(6,7-Dimethoxy-1,5-naphthyridin-4-yl)oxy]phenyl]-7-(5-methylthiophen-2-yl)-8-oxo-3,4-dihydro-1H-pyrido[2,1-c][1,4]oxazine-9-carboxamide] |
| ≤ 0.1 | ≤ 0.1 | COCCOc1cc2nccc(Oc3ccc(NC(=O)c4c(C)n(C)c(C)c(-c5ccco5)c4=O)cc3F)c2nc1OC [Compound 254, N-[3-Fluoro-4-[[6-methoxy-7-(2-methoxyethoxy)-1,5-naphthyridin-4-yl]oxy]phenyl]-5-(furan-2-yl)-1,2,6-trimethyl-4-oxopyridine-3-carboxamide] |
| ≤ 0.1 | ≤ 0.1 | COCCOc1cc2nccc(Oc3ccc(NC(=O)c4cnc(C)c(-c5ccco5)c4O)cc3F)c2nc1OC [Compound 260, N-[3-Fluoro-4-[[6-methoxy-7-(2-methoxyethoxy)-1,5-naphthyridin-4-yl]oxy]phenyl]-5-(furan-2-yl)-4-hydroxy-6-methylpyridine-3-carboxamide] |
| ≤ 0.1 | ≤ 0.1 | COc1cc2nccc(Oc3ccc(NC(=O)c4c5n(cc(-c6ccc(C)s6)c4=O)CCOC5)cc3F)c2nc1OC [Compound 304, N-[4-[(6,7-Dimethoxy-1,5-naphthyridin-4-yl)oxy]-3-fluorophenyl]-7-(5-methylthiophen-2-yl)-8-oxo-3,4-dihydro-1H-pyrido[2,1-c][1,4]oxazine-9-carboxamide] |
| ≤ 0.1 | ≤ 0.1 | COc1cc2nccc(Oc3ccc(NC(=O)c4c5n(cc(-c6ccoc6)c4=O)CCOC5)cc3F)c2nc1OC [Compound 306, N-[4-[(6,7-Dimethoxy-1,5-naphthyridin-4-yl)oxy]-3-fluorophenyl]-7-(furan-3-yl)-8-oxo-3,4-dihydro-1H-pyrido[2,1-c][1,4]oxazine-9-carboxamide] |
| ≤ 0.1 | ≤ 0.1 | COc1cc2nccc(Oc3ccc(NC(=O)c4ccc(C)n(-c5cccnn5)c4=O)cc3F)c2nc1OC [Compound 234, N-[4-[(6,7-Dimethoxy-1,5-naphthyridin-4-yl)oxy]-3-fluorophenyl]-6-methyl-2-oxo-1-pyridazin-3-ylpyridine-3-carboxamide] |
| ≤ 0.1 | 0.3 to 1 | COc1cc2nccc(Oc3ccc(NC(=O)c4c5n(cc(-c6ccoc6)c4=O)CCOC5)cc3)c2nc1OC [Compound 310, N-[4-[(6,7-Dimethoxy-1,5-naphthyridin-4-yl)oxy]phenyl]-7-(furan-3-yl)-8-oxo-3,4-dihydro-1H-pyrido[2,1-c][1,4]oxazine-9-carboxamide] |
| ≤ 0.1 | 0.1 to 0.3 | COc1cc2nccc(Oc3ccc(NC(=O)c4c5n(cc(-c6cc(C)cs6)c4=O)CCOC5)cc3)c2nc1OC [Compound 303, N-[4-[(6,7-Dimethoxy-1,5-naphthyridin-4-yl)oxy]phenyl]-7-(4-methylthiophen-2-yl)-8-oxo-3,4-dihydro-1H-pyrido[2,1-c][1,4]oxazine-9-carboxamide] |
| ≤ 0.1 | ≤ 0.1 | COc1cc2nccc(Oc3ccc(NC(=O)c4c5n(c(C)c(-c6ccsc6)c4=O)CCOC5)cc3F)c2nc1OC [Compound 307, N-[4-[(6,7-Dimethoxy-1,5-naphthyridin-4-yl)oxy]-3-fluorophenyl]-6-methyl-8-oxo-7-thiophen-3-yl-3,4-dihydro-1H-pyrido[2,1-c][1,4]oxazine-9-carboxamide] |
| ≤ 0.1 | ≤ 0.1 | COc1cc2nccc(Oc3ccc(NC(=O)c4ccc(C)n(-c5ccnc(O)c5)c4=O)cc3F)c2nc1OC [Compound 232, N-[4-[(6,7-Dimethoxy-1,5-naphthyridin-4-yl)oxy]-3-fluorophenyl]-1-(2-hydroxypyridin-4-yl)-6-methyl-2-oxopyridine-3-carboxamide] |
